Reference: US20250186365A1, “COMBINATION OF ANTISPASMODIC AND OSMOTIC AGENTS FOR TOPICAL PRODUCTS AND METHOD OF USE THEREOF” (priority 2023, published 2025)
Entries after “also recorded” stand apart in the source; their conditions may differ.

Columns and labels:
[1] = tested on: mouse extensor digitorum longus muscles; assay: Isolated mouse muscle contraction study
Protocol: FIG. 4 is a schematic diagram of a validated isolated mouse muscle contraction study. The mouse muscles were isolated and placed in a physiological buffer within a tissue bath. Muscles were anchored at one end to the chamber floor and connected at the other end to a force transducer. After establishing a baseline response to the electrical field stimulation, HD was added to the buffer at concentrations ranging from 0.01% w/w to 1% w/w, and the impact on muscle contractile force was recorded over time at the fixed frequency of 150 Hz.
This subsequent study was aimed to elucidate the specific effects of HD on isolated muscle tissue from mice, to quantify its potential use as a muscle relaxant. The study's design allowed for the controlled assessment of muscle contractility in a physiological buffer, minimizing external variables present in in vivo models. Muscle Isolation: The mouse extensor digitorum longus muscles were carefully dissected and mounted in a tissue bath super fused with oxygenated physiological buffer, ensuring tissue viability throughout the experiment (FIG. 4). Baseline Measurement: Initial contractile responses were established via electrical field stimulation at various frequencies, setting a comparative baseline for subsequent HD application effects. HD Application: Differing concentrations of HD (ranging from 0.01% to 1%) were introduced to the buffer. The muscle's contractile force (amplitude, which is the maximum contractile force) was determined to assess HD's concentration-dependent effects (FIG. 6). Stimulation Frequency Adjustment: To explore the frequency-dependent nature of HD's action, muscles underwent varied frequencies of electrical stimulation. This protocol is aimed to simulate conditions of sporadic muscle spasms.

[2] = tested on: hairless mice; assay: Rotarod performance study in hairless mice; type: in vivo; details: 5% HD topical; for time spent on Rota Rod: 20 rpm, vehicle 60 seconds
Protocol: Once the mice were trained, the rod was rotated at a constant speed of 20 rpm. Then the mice were placed on the rotating rod and length of time they could stay on the rotating rod was measured.
The Rotarod study was to investigate the skeletal muscle relaxant effects of HD, specifically its impact on motor coordination and balance in hairless mice. The study was structured to assess both the kinetics of HD's effect over time and its efficacy in inducing muscle relaxation. Efficacy of HD was determined post-treatment at intervals of 15, 30, 60, 75, 90 minutes. Control and Treatment Groups: Each stage included a control group receiving vehicle (Aloe Vera Gel) and a test group treated with HD, 5% w/w HD (0.5 g) in the vehicle (9.5 g Aloe Vera Gel). The topical treatment was applied to the thighs of all four limbs for each mouse.

[3] = tested on: hind limb muscle; assay: Rat hind limb muscle twitch study; type: in vivo, Sprague-Dawley rats
Protocol: Adverting now to the drawings, FIG. 1 is a schematic diagram of a validated muscle twitch experimental set-up in the present disclosure. Here, anesthetized Sprague-Dawley rats were prepared for muscle contraction assessment of their hind limbs. The hind limbs were shaved and secured at the knee and ankle joints to prevent movement. The distal tendon of the targeted muscle was connected to a high-sensitivity force transducer to measure contractile force with precision. Electrical stimulation was delivered via electrodes positioned on the sciatic nerve to evoke muscle contractions. Vehicle (control study) or 5% w/w of HD was topically applied to the dermal area corresponding to the muscle group under study, ensuring proximity for local diffusion and effect. A study was performed to evaluate the effects of HD on muscle contractility using a validated in vivo rat model. The experimental setup was meticulously designed to measure the contractile force of the hind limb muscle in response to electrical stimulation of the sciatic nerve, providing a quantitative assessment of muscle relaxation and contraction dynamics in the presence of HD. Anesthetized Sprague-Dawley rats were used for this study, ensuring minimal variability in response to HD application. Hind limbs were shaved and then immobilized at the knee and ankle joints to isolate the effect to the targeted muscle group. […]

CCCCC(O)CO (centres unmarked) [HD, 1,2-hexanediol]
inhibitory effect on muscle contraction ([1]; 0.01% HD in buffer, 150 Hz): minimal effects; also recorded: No significant inhibitory effect | reduction in contractile force ([1]; 0.1% HD in buffer, 150 Hz, vs vehicle controls): about 44% | torque generation against stimulus frequency ([1]; 0.5% HD vs vehicle, n=5, p<0.01): frequency-dependent decrease in torque generation; also recorded: inhibition is more complete at higher frequencies of stimulation | recovery from the muscle relaxant effect [2]: complete recovery of all mice | time spent on Rota Rod ([2]; 30 minutes post treatment): significant decrease | time spent on Rota Rod ([2]; 60 minutes post treatment): significant decrease | duration of muscle contraction ([3]; 5% w/w HD topical vs vehicle, p<0.05): statistically significant reduction | ability to maintain tetanic contraction during the stimulus period ([3]; 5% w/w HD topical, electrical stimulation at 150 Hz): failing to maintain tetanic tension; also recorded: unable to maintain tetanic contraction
